Key:
Details in all cases: 48 h
NOMO1 [1] = experiment: AUC of viability dose-response curve (% viability x log10 dose units); higher = less sensitive
Outline: (§1)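 Leukemia cells adapted to each medium were seeded at 500 or 1000 cells/well in 1536-well plates and dosed with library compounds in DMSO at 11 threefold doses from 47 μM to 0.79 nM for 48 h at 37°C. CellTiter-Glo One luminescence was normalised per plate to DMSO and cell-free wells, then fitted with a four-parameter log-logistic model over log10 doses. Area under the curve was taken from this fit by the trapezoidal rule, with curves above full viability scaled and curves failing quality control removed.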

P12-Ichikawa [2] = experiment: as above
Outline: as §1

SEM cells [3] = experiment: as above
Outline: as §1

NOMO1 [4] = experiment: cell viability relative to DMSO control; higher = less cytotoxic
Outline: (§2)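 Library compounds in DMSO were pin-dosed into 1536-well plates (5 μl) holding NOMO1 or SEM (500 cells/well) or P12-Ichikawa (1000 cells/well) leukemia cells, across an 11-point threefold series of 47 μM to 0.79 nM. Each cell line had been adapted for at least four passages in each medium. CellTiter-Glo One luminescence was read after 48 h at 37°C. Viability is the per-plate percentage relative to DMSO wells, with cell-free wells as background.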

P12-Ichikawa [5] = experiment: as above
Outline: as §2

SEM cells [6] = experiment: as above
Outline: as §2

[7] = RPMI 5 mM glucose + 10% dialyzed FBS
[8] = HPLM + 10% dialyzed FBS, 0.000781 µM
[9] = HPLM + 10% dialyzed FBS, 0.00234 µM
[10] = HPLM + 10% dialyzed FBS, 0.00702 µM
[11] = HPLM + 10% dialyzed FBS, 0.0211 µM
[12] = HPLM + 10% dialyzed FBS, 0.0632 µM
[13] = HPLM + 10% dialyzed FBS, 0.19 µM
[14] = HPLM + 10% dialyzed FBS, 0.569 µM
[15] = HPLM + 10% dialyzed FBS, 1.71 µM
[16] = HPLM + 10% dialyzed FBS, 5.12 µM
[17] = HPLM + 10% dialyzed FBS, 15.4 µM
[18] = HPLM + 10% dialyzed FBS, 46.1 µM
[19] = RPMI 5 mM glucose + 10% FBS, 0.000781 µM
[20] = RPMI 5 mM glucose + 10% FBS, 0.00234 µM
[21] = RPMI 5 mM glucose + 10% FBS, 0.00702 µM
[22] = RPMI 5 mM glucose + 10% FBS, 0.0211 µM
[23] = RPMI 5 mM glucose + 10% FBS, 0.0632 µM
[24] = RPMI 5 mM glucose + 10% FBS, 0.19 µM
[25] = RPMI 5 mM glucose + 10% FBS, 0.569 µM
[26] = RPMI 5 mM glucose + 10% FBS, 1.71 µM
[27] = RPMI 5 mM glucose + 10% FBS, 5.12 µM
[28] = RPMI 5 mM glucose + 10% FBS, 15.4 µM
[29] = RPMI 5 mM glucose + 10% FBS, 46.1 µM
[30] = RPMI 5 mM glucose + 10% dialyzed FBS, 0.000781 µM
[31] = RPMI 5 mM glucose + 10% dialyzed FBS, 0.00234 µM
[32] = RPMI 5 mM glucose + 10% dialyzed FBS, 0.00702 µM
[33] = RPMI 5 mM glucose + 10% dialyzed FBS, 0.0211 µM
[34] = RPMI 5 mM glucose + 10% dialyzed FBS, 0.0632 µM
[35] = RPMI 5 mM glucose + 10% dialyzed FBS, 0.19 µM
[36] = RPMI 5 mM glucose + 10% dialyzed FBS, 0.569 µM
[37] = RPMI 5 mM glucose + 10% dialyzed FBS, 1.71 µM
[38] = RPMI 5 mM glucose + 10% dialyzed FBS, 5.12 µM
[39] = RPMI 5 mM glucose + 10% dialyzed FBS, 15.4 µM
[40] = RPMI 5 mM glucose + 10% dialyzed FBS, 46.1 µM

For `COc1cc2c(NC3CCN(C(C)C)CC3)nc(C3CCCCC3)nc2cc1OCCCN1CCCC1`, the “AUC of viability dose-response curve” value (NOMO1 [1]; HPLM + 10% dialyzed FBS) was 444, the “AUC of viability dose-response curve” value (NOMO1 [1]; RPMI 5 mM glucose + 10% FBS) was 455 and the “AUC of viability dose-response curve” value (NOMO1 [1]; [7]) was 438. For the same compound, the “AUC of viability dose-response curve” value (P12-Ichikawa [2]; HPLM + 10% dialyzed FBS) was 449, the “AUC of viability dose-response curve” value (P12-Ichikawa [2]; RPMI 5 mM glucose + 10% FBS) was 445 and the “AUC of viability dose-response curve” value (P12-Ichikawa [2]; [7]) was 441. The “AUC of viability dose-response curve” value (SEM cells [3]; HPLM + 10% dialyzed FBS) was 419, the “AUC of viability dose-response curve” value (SEM cells [3]; RPMI 5 mM glucose + 10% FBS) was 440 and the “AUC of viability dose-response curve” value (SEM cells [3]; [7]) was 454. The cell viability (NOMO1 [4]; [8]) was 120%, the cell viability (NOMO1 [4]; [9]) was 133% and the cell viability (NOMO1 [4]; [10]) was 123%. The cell viability (NOMO1 [4]; [11]) was 118%, the cell viability (NOMO1 [4]; [12]) was 142% and the cell viability (NOMO1 [4]; [13]) was 128%. The cell viability (NOMO1 [4]; [14]) was 118%, the cell viability (NOMO1 [4]; [15]) was 130% and the cell viability (NOMO1 [4]; [16]) was 111%. The cell viability (NOMO1 [4]; [17]) was 102%, the cell viability (NOMO1 [4]; [18]) was 9.5% and the cell viability (NOMO1 [4]; [19]) was 107%. The cell viability (NOMO1 [4]; [20]) was 117%, the cell viability (NOMO1 [4]; [21]) was 114% and the cell viability (NOMO1 [4]; [22]) was 129%. It also gave a cell viability (NOMO1 [4]; [23]) of 117%, a cell viability (NOMO1 [4]; [24]) of 130% and a cell viability (NOMO1 [4]; [25]) of 134%. It also gave a cell viability (NOMO1 [4]; [26]) of 114%, a cell viability (NOMO1 [4]; [27]) of 118% and a cell viability (NOMO1 [4]; [28]) of 115%. The cell viability (NOMO1 [4]; [29]) was 18.2%, the cell viability (P12-Ichikawa [5]; [8]) was 107% and the cell viability (P12-Ichikawa [5]; [9]) was 110%. The cell viability (P12-Ichikawa [5]; [10]) was 115%, the cell viability (P12-Ichikawa [5]; [11]) was 121% and the cell viability (P12-Ichikawa [5]; [12]) was 121%. For the same compound, the cell viability (P12-Ichikawa [5]; [13]) was 121%, the cell viability (P12-Ichikawa [5]; [14]) was 120% and the cell viability (P12-Ichikawa [5]; [15]) was 123%. It also gave a cell viability (P12-Ichikawa [5]; [16]) of 119%, a cell viability (P12-Ichikawa [5]; [17]) of 105% and a cell viability (P12-Ichikawa [5]; [18]) of 4.7%. It also gave a cell viability (P12-Ichikawa [5]; [19]) of 112%, a cell viability (P12-Ichikawa [5]; [20]) of 127% and a cell viability (P12-Ichikawa [5]; [21]) of 113%. The cell viability (P12-Ichikawa [5]; [22]) was 127%, the cell viability (P12-Ichikawa [5]; [23]) was 121% and the cell viability (P12-Ichikawa [5]; [24]) was 116%. It also gave a cell viability (P12-Ichikawa [5]; [25]) of 120%, a cell viability (P12-Ichikawa [5]; [26]) of 131% and a cell viability (P12-Ichikawa [5]; [27]) of 112%. It also gave a cell viability (P12-Ichikawa [5]; [28]) of 96.9%, a cell viability (P12-Ichikawa [5]; [29]) of 3.81% and a cell viability (P12-Ichikawa [5]; [30]) of 106%. For the same compound, the cell viability (P12-Ichikawa [5]; [31]) was 117%, the cell viability (P12-Ichikawa [5]; [32]) was 114% and the cell viability (P12-Ichikawa [5]; [33]) was 121%. For the same compound, the cell viability (P12-Ichikawa [5]; [34]) was 123%, the cell viability (P12-Ichikawa [5]; [35]) was 129% and the cell viability (P12-Ichikawa [5]; [36]) was 122%. The cell viability (P12-Ichikawa [5]; [37]) was 133%, the cell viability (P12-Ichikawa [5]; [38]) was 110% and the cell viability (P12-Ichikawa [5]; [39]) was 91.5%. For the same compound, the cell viability (P12-Ichikawa [5]; [40]) was 4.78%, the cell viability (SEM cells [6]; [8]) was 111% and the cell viability (SEM cells [6]; [9]) was 125%. For the same compound, the cell viability (SEM cells [6]; [10]) was 109%, the cell viability (SEM cells [6]; [11]) was 122% and the cell viability (SEM cells [6]; [12]) was 122%. For the same compound, the cell viability (SEM cells [6]; [13]) was 125%, the cell viability (SEM cells [6]; [14]) was 130% and the cell viability (SEM cells [6]; [15]) was 81.9%. For the same compound, the cell viability (SEM cells [6]; [16]) was 108%, the cell viability (SEM cells [6]; [17]) was 61.7% and the cell viability (SEM cells [6]; [18]) was 6.83%. For the same compound, the cell viability (SEM cells [6]; [19]) was 109%, the cell viability (SEM cells [6]; [20]) was 113% and the cell viability (SEM cells [6]; [21]) was 122%. For the same compound, the cell viability (SEM cells [6]; [22]) was 116%, the cell viability (SEM cells [6]; [23]) was 112% and the cell viability (SEM cells [6]; [24]) was 122%. It also gave a cell viability (SEM cells [6]; [25]) of 109%, a cell viability (SEM cells [6]; [26]) of 77.3% and a cell viability (SEM cells [6]; [27]) of 113%. The cell viability (SEM cells [6]; [28]) was 76.6%, the cell viability (SEM cells [6]; [29]) was 10.2% and the cell viability (SEM cells [6]; [30]) was 90.1%. For the same compound, the cell viability (SEM cells [6]; [31]) was 114%, the cell viability (SEM cells [6]; [32]) was 111% and the cell viability (SEM cells [6]; [33]) was 119%. It also gave a cell viability (SEM cells [6]; [34]) of 116%, a cell viability (SEM cells [6]; [35]) of 113% and a cell viability (SEM cells [6]; [36]) of 112%. The cell viability (SEM cells [6]; [37]) was 76.8%, the cell viability (SEM cells [6]; [38]) was 115% and the cell viability (SEM cells [6]; [39]) was 93.5%. It also gave a cell viability (SEM cells [6]; [40]) of 32.9%.
